# Assay results published in PMC12775124, “CUL4A-DDB1-DCAF10 is an N-recognin for N-terminally acetylated Src kinases” (Nature Communications, 2026).
# Columns and labels:
# pY397 Lyn = experiment: Phosphorylation of Lyn-GFP variants at pY397, Western blot (reviewers only); format: cell-based, human; settings: preliminary experiment, unstimulated cells, three independent blots
# From the text: distinct in term of phospho-tyrosine activity?
# We agree that understanding the functional consequences of N-terminal acetylation versus myristoylation—particularly regarding kinase activity and localization—is among the most relevant questions and a key next step in this project. As an initial indication, we performed a preliminary experiment using full-length Lyn constructs (LynWT-GFP, LynG2A-GFP, and LynG2P-GFP) with or without NMT1/2 RNAi and probed the activating phospho-tyrosine site of Lyn (pY397). We observed marked […]
# upon NMT1/2 knockdown specifically at the activating pY397 site, while global pY levels appeared to be largely unchanged in these unstimulated cells, […] (Figure 2 provided to reviewers only). […]
# have not included them in the manuscript but provide them for the reviewers’ information only, as we are working on consequences for kinase activity and biological role. We plan to pursue a systematic analysis under stimulated conditions, quantifying pY patterns and localization changes to define how the N-terminal state affects SFK signaling output. […]
# Fig. 2 for reviewers only. a) LynWT-GFP, LynG2A-GFP and LynG2P-GFP expressing cells were treated with NMT1/2 RNAi or left untreated and then blotted against anti-pY397 Lyn, pan-anti-pY and controls. b) Quantification of three independent blots. […]
# DCAF10 = experiment: Anti-GFP immunoprecipitation of Lyn-GFP with MS, DCAF10; format: binding, human; settings: anti-GFP IP, NMT1/2 siRNA and control
# Experimental: 494 induction using GFP-Trap magnetic agarose beads. Briefly, 10 µL of bead slurry per
# 495 reaction was equilibrated three times with ice-cold lysis buffer (75 mM HEPES pH 7.5,
# 497 supplemented with 1mM DTT, PhosSTOP, and Protease Inhibitor Cocktail). Then, 500
# 498 µL of each lysate sample (control, dox induction, and NMT1/2 knockdown with or
# 499 without dox induction) containing approximately 300 µg total protein, were added to
# 500 tubes containing the equilibrated beads. Samples were rotated end-over-end for 1.5–2 h
# After incubation, the beads were washed twice with 500 µL of cold lysis buffer
# 502 and twice with 500 µL of cold lysis buffer lacking NP-40, glycerol, DTT, phosSTOP, and
# 503 Protease Inhibitor Cocktail. Finally, the immunoprecipitates were resuspended in 50 µL
# 504 of 8 M urea, incubated at 25°C for 30 min, and stored at -20°C prior to on-bead digestion
# Each experimental condition was performed in
# 526 Mass spectrometry measurements and raw file processing
# 527 Samples (peptide pull-downs, IPs and high-pH fractionations) were separated on an
# 528 EASY-nLC 1200 HPLC system (Thermo Fisher Scientific, Waltham, MA, USA) using
# 529 in-house-packed 50-cm reversed-phase columns (75 cm diameter, 1.9 mm C18 ReproSil
# 530 particles, Dr. Maisch GmbH) (60°C at 300 nL/min flow rate with an 83 min gradient from […]
# 536 sec cycle time) (data points per peak = 6). Cycle times were calculated based on the […]
# [1] = system: DLD-1 Flp-In T-REx and Lyn KO cells; experiment: Level of Lyn / Lyn-GFP variants after NMT1/2 and DCAF10 siRNA, Western blot; format: cell-based, human
# From the text: To further investigate the role of the Nt-amino acid and its modification in DCAF10 recognition and DCAF10-dependent ubiquitination, we used the CRISPR/Cas9 technique to knock out Lyn in DLD-1 cell lines with T-REx Flp-In background (DLD-1 Lyn KO Flp-In T-REx) (Supplementary Fig. 7a–c). We then integrated Lyn^WT-GFP and two Nt-mutants (Lyn^G2A-GFP and Lyn^G2P-GFP) under a doxycycline-inducible promoter into the Flp-In cassette. Alanine (G2A) is expected to be efficiently acetylated by NatA, generating an Nt-acetylated Lyn mutant. Conversely, the proline (G2P) mutant, is expected not to be acetylated and may retain a free N-terminus[3],[36],[37]. Doxycycline-induced expression of Lyn^WT-GFP, Lyn^G2A-GFP, and Lyn^G2P-GFP was confirmed by Western blot, MS, and fluorescence microscopy (Supplementary Figs. 7d, e; 8a and Supplementary Data 6). While all constructs were ~2–5-fold higher expressed than endogenous Lyn, G2A and G2P were further elevated relative to WT, which may reflect increased stability when Nt-Gly/acetylation is altered (Supplementary Fig. 7e). […] Lyn^WT-GFP mirrored the behavior of endogenous Lyn under NMT1/2 siRNA treatment. Lyn levels decreased with NMT1/2 KD, but were rescued when siRNAs targeting both NMT1/2 and DCAF10 were applied (Fig. 6a, b). […] The weaker reduction of Lyn^WT-GFP may result from Lyn overexpression and the limiting availability of DCAF10.
# Fig. 6 N-terminal glycine mutation abolishes DCAF10-dependent stability and ubiquitination. a DLD-1 Flp-In T-REx cells and Lyn KO cells expressing Lyn^WT-GFP, Lyn^G2A-GFP, or Lyn^G2P-GFP were induced for 24 h with 100 ng/mL doxycycline. Cells were treated with NMT1/2 siRNA, DCAF10 siRNA, or both (or left untreated) for 72 h. Representative WBs are shown. Filled circles represent siRNA treatment, empty circles untreated. b WB quantifications of Lyn levels normalized to vinculin. Purple: untreated with NMT1/2 siRNA; blue: treated with NMT1/2 siRNA. Mean ± s.d. with individual data points are shown (n = 3 independent biological replicates). c Schematic of ubiquitination experiments. Created in BioRender. […] Lysates have been treated with NMT1/2 RNAi for 72 h. i Quantification of in vitro ubiquitination assays. Mean ± s.d. with individual data points are shown (n = 3 independent ubiquitination assays). Volcano plots of Lyn-GFP^WT binding partners: j NMT1/2 siRNA ± doxycycline (Dox); k Control ± doxycycline; l NMT1/2 siRNA vs. control both with doxycycline. The −log10 adjusted p-value (two-sided Student’s t test with permutation-based multiple-testing correction; y-axis) is plotted against the log2 fold change (x-axis). Threshold for significance: −log10 p-value ≥ 1.3 (p ≤ 0.05), log2 fold change ≤ −1 or ≥ 1. DCAF10 and Lyn-GFP are marked in green, significant binding partners in purple and in blue, respectively. Source data are provided as a Source data file.
# DLD-1 Lyn knockout (KO) Flp-In T-REx cells were generated by CRISPR/Cas9 electroporation using two guide RNAs targeting the LYN locus. Editing and clone validation were confirmed by genomic sequencing, Western blotting, and MS[51]. Stable cell lines expressing doxycycline-inducible Lyn-GFP (WT, G2A, or G2P) were established by FRT/Flp-mediated recombination and validated by antibiotic selection, Western blotting, and fluorescence microscopy. Detailed protocols are provided in the Supplementary Methods and Tables.
# 461 electroporated using the CM137 program. Following electroporation, the cells were kept […]
substance,measurement,setting,value
Lyn^WT-GFP: doxycycline-inducible C-terminally GFP-fused Lyn in DLD-1 Lyn KO cells,Decrease of pY397 phosphorylation upon NMT1/2 knockdown,pY397 Lyn,approximately 15%
same,Interaction with DCAF10 (in words),DCAF10,"significantly interacted with DCAF10 under both NMT1/2 siRNA and control conditions, with significant enrichment upon NMT1/2 KD"
same,Level decrease following NMT1/2 KD,"[1]; DLD-1, 72 h NMT1/2 siRNA, 24 h doxycycline 100 ng/mL, WB/vinculin, average, n = 3",21%
same,Dependency on NMT1/2 and DCAF10 (in words),"[1]; DLD-1, 72 h siRNA",remained dependent on NMT1/2 and DCAF10
same,Level increase upon combined NMT1/2 and DCAF10 KD,"[1]; DLD-1, 72 h siRNA, WB/vinculin, n = 3",41.7%
